Test results: patent US10934277B2, “Enantiomerically purified GPER agonist for use in treating disease states and conditions” (Linnaeus Therapeutics, Inc., priority 2018, dated 2021)
Values joined by “and” are separate entries in the source; they are usually repeats but may differ in a detail not shown here. Equal entries are not always repeated.

Assays:
[1] = test system: YUMM1.7 melanoma cells; assay: YUMM1.7 proliferation assay (4 day growth); assay type: cell-based; conditions: 500 nM; for doubling compared with that seen with the vehicle / Doublings: 4 days; for Doublings / cell count after 4 days of growth (single replicates) / average cell count after 4 days of growth: starting cell number 15,000; for cell count after 4 days of growth (single replicates): 5 replicates; for average cell count after 4 days of growth: average of 5 replicates
Protocol: YUMM1.7 cells were cultured for at least 1 passage after thawing and were cultured in DMEM with 5% FBS (Invitrogen) and 1% antibiotic-antimycotic (gibco) at 37C 5% CO2. Proliferation assays were performed by plating 15,000 cells in 12-well plates with 5 replicates per condition tested. Media and drugs were refreshed on Day 2. On Day 4, cells were trypsinized using 0.25 ml 0.05% Trypsin with EDTA (Invitrogen) for 5 minutes to detach from the plate, mixed with 0.75 ml of culture media, and counted using a hemocytometer.
Starting cell numbers were 15,000.

[2] = target: T1, OATP1B1 (Homo sapiens, UniProt Q9Y6L6); assay: Drug transporter fluorometric inhibition, OATP1B1; assay type: in vitro ADME
T1 sequence (Q9Y6L6 1-691): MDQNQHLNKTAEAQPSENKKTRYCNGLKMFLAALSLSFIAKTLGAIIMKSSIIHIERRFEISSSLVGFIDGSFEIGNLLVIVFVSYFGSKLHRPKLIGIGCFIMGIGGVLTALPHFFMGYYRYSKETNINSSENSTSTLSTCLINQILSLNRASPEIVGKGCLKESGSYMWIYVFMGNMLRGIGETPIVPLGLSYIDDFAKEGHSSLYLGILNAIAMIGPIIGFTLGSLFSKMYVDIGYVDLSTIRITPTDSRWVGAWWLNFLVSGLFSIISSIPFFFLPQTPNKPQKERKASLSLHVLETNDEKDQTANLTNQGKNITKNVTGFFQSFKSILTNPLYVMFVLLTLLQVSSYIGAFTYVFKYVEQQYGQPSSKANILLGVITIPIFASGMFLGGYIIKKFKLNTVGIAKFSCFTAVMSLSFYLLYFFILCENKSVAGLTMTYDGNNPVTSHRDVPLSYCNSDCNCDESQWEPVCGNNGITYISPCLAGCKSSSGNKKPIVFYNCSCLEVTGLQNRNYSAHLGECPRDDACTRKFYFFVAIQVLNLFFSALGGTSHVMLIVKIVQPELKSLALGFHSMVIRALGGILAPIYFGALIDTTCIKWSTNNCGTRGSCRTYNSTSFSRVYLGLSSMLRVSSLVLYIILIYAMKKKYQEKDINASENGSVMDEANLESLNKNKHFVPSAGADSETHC
Protocol: (§1) Drug transporter (fluorometric inhibition)
(§2) The percent of control was calculated using the following equation. The percent of inhibition was calculated by subtracting the percent of control from 100. The IC50 value (concentration causing a half-maximal inhibition of the control value) was determined by non-linear regression analysis of the concentration-response curve using the Hill equation.
(§3) Compound is the individual reading in the presence of the test compound. T1 is the mean reading in the absence of the test compound. Background (for P-gp and BCRP) is the mean reading in the presence of the highest effective concentration of the reference inhibitor. Background (for OATP1B1, OATP1B3, OAT1, OAT3, and OCT2) is the mean reading in the absence of both the test compound and the substrate.

[3] = target: T2, OATP1B3 (Homo sapiens, UniProt Q9NPD5); assay: Drug transporter fluorometric inhibition, OATP1B3; assay type: in vitro ADME
T2 sequence (Q9NPD5 1-702): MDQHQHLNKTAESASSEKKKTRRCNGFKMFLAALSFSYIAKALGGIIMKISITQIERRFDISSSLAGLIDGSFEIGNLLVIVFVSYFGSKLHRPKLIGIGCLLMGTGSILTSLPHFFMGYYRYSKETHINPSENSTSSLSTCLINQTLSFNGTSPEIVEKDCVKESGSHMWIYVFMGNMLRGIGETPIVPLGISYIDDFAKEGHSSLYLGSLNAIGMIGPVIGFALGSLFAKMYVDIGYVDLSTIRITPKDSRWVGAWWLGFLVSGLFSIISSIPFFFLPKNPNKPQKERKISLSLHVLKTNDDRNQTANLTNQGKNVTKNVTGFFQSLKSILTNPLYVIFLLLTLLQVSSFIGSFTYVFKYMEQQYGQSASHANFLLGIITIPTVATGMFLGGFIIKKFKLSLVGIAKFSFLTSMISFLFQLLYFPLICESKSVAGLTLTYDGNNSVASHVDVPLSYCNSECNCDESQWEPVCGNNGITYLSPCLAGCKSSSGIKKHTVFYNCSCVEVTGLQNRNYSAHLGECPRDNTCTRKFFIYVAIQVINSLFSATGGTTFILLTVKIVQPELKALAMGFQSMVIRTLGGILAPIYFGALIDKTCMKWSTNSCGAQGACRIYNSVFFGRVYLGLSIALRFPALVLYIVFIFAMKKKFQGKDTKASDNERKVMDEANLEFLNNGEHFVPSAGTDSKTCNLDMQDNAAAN
Protocol: as §1, §2, §3

[4] = target: T3, HTR1A (Homo sapiens, UniProt P08908); assay: Off target selectivity assay, HTR1A; assay type: cell-based; conditions: dose response, concentrations up to 10 μM; read-out: IC50 or EC50 on HTR1A
T3 sequence (P08908 1-422): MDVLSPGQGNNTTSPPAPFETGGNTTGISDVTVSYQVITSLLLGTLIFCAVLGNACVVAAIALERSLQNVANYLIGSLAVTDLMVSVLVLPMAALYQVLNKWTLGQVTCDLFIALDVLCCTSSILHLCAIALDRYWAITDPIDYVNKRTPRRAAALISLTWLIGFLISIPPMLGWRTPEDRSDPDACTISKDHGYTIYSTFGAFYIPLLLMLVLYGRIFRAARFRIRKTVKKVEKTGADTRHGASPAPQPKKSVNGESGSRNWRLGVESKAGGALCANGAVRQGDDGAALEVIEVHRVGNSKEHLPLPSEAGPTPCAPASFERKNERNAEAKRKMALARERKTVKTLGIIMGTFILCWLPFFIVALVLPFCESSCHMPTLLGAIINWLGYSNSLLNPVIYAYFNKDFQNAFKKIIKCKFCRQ
Protocol: (§4) Final assay vehicle concentration was 1%.
(§5) For Gi coupled GPCRs, EC80 forskolin was included.
(§6) DMSO concentration for all readouts is ≤0.2%.
(§7) Probenicid was prepared fresh. Cells were loaded with dye prior to testing.

[5] = test system: CYP1A2; assay: Cytochrome P450 induction in hepatocytes, CYP1A2; assay type: in vitro ADME; conditions: hepatocytes from three different human cell lines; 1 μM, 10 μM and 100 μM
[6] = target: HTR2B (Homo sapiens, UniProt P41595); assay: Off target selectivity assay, HTR2B; assay type: cell-based; conditions: dose response, concentrations up to 10 μM; read-out: IC50 or EC50 on HTR2B
Chain of HTR2B (P41595 whole entry): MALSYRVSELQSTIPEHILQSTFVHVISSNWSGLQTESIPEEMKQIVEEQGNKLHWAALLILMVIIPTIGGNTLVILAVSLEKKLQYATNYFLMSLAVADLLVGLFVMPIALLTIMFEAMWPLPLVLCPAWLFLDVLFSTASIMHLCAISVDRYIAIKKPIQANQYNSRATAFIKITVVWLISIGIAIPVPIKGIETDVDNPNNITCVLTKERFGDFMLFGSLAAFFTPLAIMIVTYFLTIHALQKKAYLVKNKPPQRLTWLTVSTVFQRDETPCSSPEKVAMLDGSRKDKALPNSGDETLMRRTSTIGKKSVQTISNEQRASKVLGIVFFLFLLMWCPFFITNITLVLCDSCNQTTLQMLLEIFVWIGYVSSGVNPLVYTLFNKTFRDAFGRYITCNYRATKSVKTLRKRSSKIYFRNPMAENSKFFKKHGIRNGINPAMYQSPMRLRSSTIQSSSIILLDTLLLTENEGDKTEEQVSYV
Protocol: as §4, §5, §6, §7

| Compound | doubling compared with that seen with the vehicle [1] | Doublings [1] | cell count after 4 days of growth (single replicates) [1] | average cell count after 4 days of growth [1] | inhibition at 10 µM [2] [%] | inhibition at 10 µM [3] [%] | IC50 [4] [µM] | CYP1A2 induction [5] | IC50 [6] [µM] |
| --- | --- | --- | --- | --- | --- | --- | --- | --- | --- |
| CC(=O)c1ccc2c(c1)[C@H]1C=CC[C@H]1[C@@H](c1cc3c(cc1Br)OCO3)N2 [RSS G-1, 1-((3aR,4S,9bS)-4-(6-bromobenzo[d][1,3]dioxol-5-yl)-3a,4,5,9b-tetrahydro-3H-cyclopenta[c]quinolin-8-yl)ethan-1-one] | approximately the same number of doublings as the vehicle | 7.9 | 83 tens of thousands and 94 tens of thousands and 79 tens of thousands and 111 tens of thousands and 107 tens of thousands | 94.8 tens of thousands | 91.2 | 74.3 | 2.1 | induced at both 10 μM and 100 μM in 2 of the 3 cell lines |  |
| CC(=O)c1ccc2c(c1)[C@@H]1C=CC[C@@H]1[C@H](c1cc3c(cc1Br)OCO3)N2 (single isomer, unassigned) [SRR G-1] | less than 1/10 | 0.6 | 2 tens of thousands (3×) and 3 tens of thousands (2×) | 2.4 tens of thousands | 82.5 |  |  | induced at both 1 μM and 10 μM in only 1 of the 3 cell lines | 8.2 |
